Laboratory results taken from patent US20250346588A1, “IMIDAZOPYRIDINE AND OXAZOLOPYRIDINE DERIVATIVES AND ANALOGS THEREOF, METHODS OF PREPARATION THEREOF, METHODS OF HIF-1/2A PATHWAY INHIBITION, AND INDUCTION OF FERROPTOSIS” (KUDA THERAPEUTICS, INC., priority 2022, published 2025).
Read-outs that look alike come from different tables or passages of the source.

Tests used:
786-0 cells [1] = test: Resazurin cell viability assay, with or without DFO and other inhibitors; type: cell-based, human; settings: for IC50: Homo sapiens, 24 h, resazurin
Procedure: (§1) Screens for inhibitory activity of compounds described herein were performed using 786-0 ccRCC cells that stably express HRE-Luc: 5 copies of the hypoxia-responsive element (HRE) fused to the pGL3 luciferase reporter (Promega Corp, Madison WI). 786-0 cells are pVHL deficient and thus constitutively express HIF-2α independently of cellular oxygen tension. Since 786-0 cells lack HIF-1α, HRE-driven luciferase activity is primarily HIF-2α driven, and has been previously validated. Cells were maintained at log phase growth in […] (DMEM) with 10% FBS in a humidified incubator at 37° C. with 5% CO2. For screening assays, cells were seeded at a density of 4,000 cells in 50 μl of complete media/well in quadruplicate wells/point in a 96-well plate. After 24 h, 50 μl of a 2× concentration of test compound was added to each well. Compounds were diluted from a 5-10 mM stock in DMSO and final concentrations of DMSO in each well in controls and treated wells were kept constant at ≤0.6% DMSO. After 24 h treatment, luciferase activity was measured using the Steady-Glo Luciferase assay system (Promega Corp) according to the manufacturer's protocol. Cell viability was measured in quadruplicate parallel wells using resazurin as recommended by the manufacturer (R&D systems, Minneapolis, MN). Data for luciferase and resazurin were normalized to DMSO treated controls (defining 100%) and wells containing assay reagent but no cells (defining 0%) and graphed using the log inhibitor versus normalized response option in Graphpad Prism 9.3.1 software. Representative data determined using Steady-Glo luciferase and resazurin are shown in FIGS. 1A and 1B respectively, with error bars showing SD. Filled diamonds, empty squares and empty triangles indicate treatment with 3, 8 and 22 respectively with results for HRE-Luc shown in FIG. 1A.
In view of the increased cellular iron concentrations induced by the compounds described herein, the involvement of iron in mediating cell death was determined. Cell viability assays were performed as described in Example 2 using resazurin as a cell viability readout and performed in the absence or presence of 100 μM of the iron chelator, DFO (D9533, MilliporeSigma, St Louis, MO). […] Viability IC50 values are shown in brackets.

[2] = system: HIF-2α transcriptional activity; test: Hypoxia-responsive element-driven luciferase (HRE-Luc) screen; type: cell-based, human; settings: Homo sapiens, 786-0, 24 h, 786-0 ccRCC cells stably expressing HRE-Luc; 24 h treatment; range of IC50 values
Procedure: as §1

786-0 ccRCC cells = test: ICP-MS of cellular iron, zinc and copper; type: cell-based, human; settings: 786-0 cells, 24h
Procedure: These studies were performed to determine the content of iron and other transition metals in cells after exposure the compounds described herein. 786-0 cells were seeded at 1.5 million cells/flask in T75 cm^2 flasks in DMEM+10% FBS, and allowed to adhere overnight. Cells were then treated with indicated concentrations of compounds in DMSO or DMSO alone (vehicle) for a further 24 h, after which cells were detached by trypsinization, counted, washed twice in phosphate-buffered saline (PBS) and pelleted. Experiments were performed using three replicate T75 cm^2 flasks per condition. A 5:1 mixture of nitric acid (OPTIMA Grade, 70%, Fisher Scientific) and ultrapure hydrogen peroxide (ULTREX II, 30%, Fisher Scientific) was added to cell pellets. This mixture was allowed to digest overnight, heated until dry, and resuspended in 2% nitric acid for analysis using an Agilent 7900 ICP-MS (Agilent Technologies, Santa Clara, CA). Calibration standard solutions for determination of Fe were prepared from Agilent multi-element calibration standard-2A. An Agilent Environmental Calibration Standard was used as an independent control. PBS-only control digestions were used to measure background. Metal readings were normalized to cell number. Data obtained from these studies for three replicate readings (with SEM) are shown in FIG. 3, which show an increase in cellular iron (Fe) content after treatment with indicated compounds.

HIF-1α and HIF-2α = test: Western blots for HIF-1α and HIF-2α in ccRCC cells; type: cell-based, human; settings: 786-0 or RCC10 ccRCC cells, 24h, relative to GAPDH
Procedure: (§2) Western blots were performed to determine the effects of the compounds on levels of HIF-2α and other relevant proteins, whereas qPCR was performed to determine the effects of compounds on transcript levels of HIF target genes. 786-0 or RCC10 cells were plated at 1×10E5 cells/well in 2 ml DMEM with 10% FBS/well in 6-well tissue culture plates. Cells were allowed to adhere overnight in a humidified incubator at 37° C. with 5% CO2, after which the appropriate concentrations of compounds in DMSO were added. DMSO concentrations were kept constant in all wells. After 24 h exposure to the compounds, cells were lysed and subjected to western blotting according to standard protocols. Antibodies for HIF-1α and HIF-2α and GAPDH were purchased from Cell Signaling Technology (Danvers, MA), whereas antibodies to IRP2 and pVHL were from Santa Cruz Biotechnology (Dallas, TX), and GPX4 antibody was from R&D Systems, Inc (Minneapolis, MN). Representative data in FIG. 2 show a dose-dependent effect of compounds in decreasing HIF-1/2α. Compounds also impact cellular iron sensing given by increased IRP2, which taken together indicate that cells sense decreased amounts of available iron, which triggers the iron starvation response initiated by IRP2 stabilization. Representative data shown in FIG. 3D show a dose dependent effect of the compounds on GPX4, which may indicate decreased resistance to ferroptosis. […] The data also show increased expression of ISCA2 with pVHL re-expression.

IRP2 and GPX4 = test: Western blots for cellular iron-sensing machinery (IRP2, GPX4); type: cell-based, human; settings: 786-0 or RCC10 ccRCC cells, 24h, relative to GAPDH
Procedure: as §2

[3] = system: RCC4 or 786-0 cells±pVHL re-expression; test: Cell viability with pVHL re-expression; type: cell-based, human; settings: 48h
RENCA syngeneic tumors = test: RENCA syngeneic tumor model, immunohistochemistry of tumors; type: in vivo; settings: Balb/c mice, once daily oral dosing, 14 days
Procedure: A similar study was performed using RENCA cells, which are derived from a renal tumor that arose spontaneously in a male Balb/c mouse. RENCA cells were purchased from ATCC and 2 million cells were implanted into the flanks of Balb/c mice. Once tumors attained an average size of approximately 75-100 mm^3, mice were stratified into two groups and animals treated with either vehicle or 70 mg/kg 26HCL once daily PO. Mouse tumor volumes were measured three times a week until tumors reached approximately 3000 mm^3, or mice required euthanasia. […] FIG. 10B through 10D show western blot quantitation and MDA quantitation by TBARs assay, as performed for the 786-0 xenografts.
Similar studies were performed using 786-0 and RENCA tumor models treated with 62TFA. […] Immunohistochemistry was performed using standard techniques using CD8 (CST98941) and CD31 (CST77699) purchased from Cell Signaling Technologies.

786-0 cells [4] = test: TBARS assay of lipid peroxidation (MDA); type: cell-based, human; settings: 48h treatment
Procedure: Malondialdehyde (MDA) is an end product of lipid peroxidation products and can be used to indicate lipid peroxidation, which is a hallmark of ferroptosis. MDA adducts were quantitated in cells and tumor tissue using the TBARS-TCA Method kit (Cat 700870, Cayman Chemicals, Ann Arbour Michigan) according to the manufacturer's protocol. Briefly, 786-0 cells were seeded at 1.75×10E6 cells in T75 cm^2 flasks, allowed to adhere overnight in a humidified incubator at 37° C. with 5% CO2, then treated with test compounds for 48 h, RSL3 (as positive control for 6h) or DMSO control (volume of DMSO kept constant for all flasks). Cells were detached by trypsinization, pelleted by centrifugation, washed in PBS twice, resuspended in 200 μL PBS, then sonicated for 3 minutes in a sonicating water bath. Representative data showing effects of 26HCL or 62TFA in comparison to RSL3, a classical ferroptosis inducer, is shown in FIG. 5. For MDA quantitation in tumor chunks, 20-50 mg of tumor tissue was homogenized in 200-500 μL of PBS, then sonicated for 5 minutes in a sonicating water bath. The cell or tumor lysates were subjected to the colorimetric detection methods described in manufacturer's protocol. MDA concentration of cells was determined in comparison to a standard curve of MDA stock solution provided by the manufacturer. Data was plotted using Prism GraphPad 9.3.1 Software. […]

[5] = system: HIF-2α Iron-Responsive Element (IRE); test: HIF-2α IRE-Luc reporter assay; type: cell-based, human; settings: 786-0 cells stably expressing HIF-2α IRE-Luc, 24h
Procedure: as §1, with “Compounds were diluted from a 5-10 mM stock in DMSO and final concentrations of DMSO in each well in controls and treated wells were kept constant at ≤0.6% DMSO.” left out, “Data for luciferase and resazurin were normalized to DMSO treated controls (defining 100%) and wells containing assay reagent but no cells (defining 0%) and graphed using the log inhibitor versus normalized response option in Graphpad Prism 9.3.1 software.” left out, “Filled diamonds, empty squares and empty triangles indicate treatment with 3, 8 and 22 respectively with results for HRE-Luc shown in FIG. 1A.” left out

Bioavailability studies = type: in vivo; settings: Swiss albino mice, at a 100 mg/kg dose

Row | IC50 [2] [µM] | IC50 (786-0 cells [1]; compound alone, read-out: cell viability IC50) [µM] | IC50 (786-0 cells [1]; with DFO 100 μM, read-out: cell viability IC50 in the presence of DFO) [µM] | half-life (Bioavailability studies) [h] | Bioavailability F (Bioavailability studies; oral) [%] | SMILES | effect of DFO co-treatment on compound-mediated loss of cell viability (786-0 cells [1]; DFO 100 μM, FIG. 4B) | cellular iron (Fe), zinc (Zn) and copper (Cu) content (786-0 ccRCC cells) | effect on HIF-1α and HIF-2α protein (Western blot) (HIF-1α and HIF-2α) | effect on IRP2 protein (Western blot) (IRP2 and GPX4) | effect of pVHL re-expression on cell viability response to compound [3] | CD8 cytotoxic T-cell infiltration (immunohistochemistry of tumors) (RENCA syngeneic tumors) | angiogenesis (CD31 immunohistochemistry of tumors) (RENCA syngeneic tumors) | lipid peroxidation (MDA-TBA adducts) (786-0 cells [4]) | effect on IRE-luciferase reporter activity normalized to resazurin [5]
1 | < 10 |  |  |  |  | COc1nccc2[nH]c(Nc3nnc(-c4ccc(F)cc4)o3)nc12 [Compound 3, 5-(4-Fluorophenyl)-N-(4-methoxy-1H-imidazo[4,5-c]pyridin-2-yl)-1,3,4-oxadiazol-2-amine] | protective effects of DFO | increases the content of iron, zinc and copper in cells | decreases HIF-1α and HIF-2α | increases IRP2 |  |  |  |  | 
2 | < 10 | 11.4 | 83.6 |  |  | COc1ccc(-c2nnc(Nc3nc4c(OC)nccc4[nH]3)o2)cc1 [Compound 22, N-(4-methoxy-1H-imidazo[4,5-c]73yridine-2-yl)-5-(4-methoxyphenyl)-1,3,4-oxadiazol-2-amine] |  | increases the content of iron, zinc and copper in cells |  |  |  |  |  |  | 
3 |  |  |  | 7 | 55 | COc1nccc2[nH]c(Nc3nnc([C@H]4CC[C@@H](OC)CC4)o3)nc12 [Compound 62TFA, N-(4-methoxy-1H-imidazo[4,5-c]pyridin-2-yl)-5-((1s,4s)-4-methoxycyclohexyl)-1,3,4-oxadiazol-2-amine] |  |  | decreases HIF-1α and HIF-2α | increases IRP2 | re-expression of pVHL promotes resistance | increases CD8-T cell infiltration | markedly decreases angiogenesis | induce lipid peroxidation to an extent comparable to the ferroptosis inducer RSL3 | decrease IRE-mediated translation of HIF-2α
